Assay results published in patent US20040063696A1, “1,1-dioxo-2h-1,2-benzothiazine-3-carboxamide derivatives,method for preparing same and pharmaceutical compositions comprising same” (priority 2000, published 2004).

System: aggrecan
Experiment: Expression of aggrecan in articular chondrocytes treated with IL-1 (Northern blot)
Assay type: cell-based
Conditions: calf articular chondrocytes, compared with cultures treated with 10 ng/ml of IL-1
Method: The expression of aggrecan was analysed by Northern blot. Total RNA of cultures of calf articular chondrocytes (CAC) cultured in DMEM+10% FCS and treated with different concentrations of the test compounds, in the presence of IL-1 (10 ng/ml), were extracted, 10 μg of the total RNA were fractionated by electrophoresis on a 1% agarose gel in the presence of an MOPS-formaldehyde buffer, transferred to a nylon membrane and hybridised with a specific aggrecan cDNA probe.

CC[N+](C)(CC)CCCNC(=O)C1=C(O)c2ccccc2S(=O)(=O)N1C.[I-] [Example 1, {3-[(4-Hydroxy-2-methyl-1,1-dioxo-2H-1,2-benzothiazin-3-yl)-carbonylamino]propyl}diethylmethylammonium iodide]
stimulation of the expression of aggrecan (10^−6 M): 150%
stimulation of the expression of aggrecan (10^−M (so in the source)): 200%
